Test results as given in PubChem BioAssay (NCI).
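Assay format: 96-well plates, 48-hour exposure. GI50 is the concentration that inhibits growth by half. The concentration for full growth arrest is given as TGI.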

Experiments:
Experiment in all cases: growth of human tumour cells (NCI), 48 h
CCRF-CEM leukemia = system: CCRF-CEM leukemia
OVCAR-8 ovarian = system: OVCAR-8 ovarian
M14 melanoma = system: M14 melanoma
T-47D breast = system: T-47D breast
SK-MEL-2 melanoma = system: SK-MEL-2 melanoma
PC-3 prostate = system: PC-3 prostate
MDA-MB-231 breast = system: MDA-MB-231 breast
MCF7 breast = system: MCF7 breast
BT-549 breast = system: BT-549 breast
NCI-H460 lung = system: NCI-H460 lung
MOLT-4 leukemia = system: MOLT-4 leukemia
OVCAR-4 ovarian = system: OVCAR-4 ovarian
SK-MEL-5 melanoma = system: SK-MEL-5 melanoma
A498 renal = system: A498 renal
SNB-75 CNS = system: SNB-75 CNS
ACHN renal = system: ACHN renal
786-0 renal = system: 786-0 renal
TK-10 renal = system: TK-10 renal
SK-MEL-28 melanoma = system: SK-MEL-28 melanoma
SR leukemia = system: SR leukemia
RPMI-8226 leukemia = system: RPMI-8226 leukemia
EKVX NSCLC = system: EKVX NSCLC
K-562 leukemia = system: K-562 leukemia
MALME-3M melanoma = system: MALME-3M melanoma
OVCAR-5 ovarian = system: OVCAR-5 ovarian
IGROV1 ovarian = system: IGROV1 ovarian
DU-145 prostate = system: DU-145 prostate
NCI/ADR-RES ovarian = system: NCI/ADR-RES ovarian
A549 NSCLC = system: A549 NSCLC
HCC-2998 colon = system: HCC-2998 colon
RXF 393 renal = system: RXF 393 renal
NCI-H23 lung = system: NCI-H23 lung
OVCAR-3 ovarian = system: OVCAR-3 ovarian
NCI-H522 lung = system: NCI-H522 lung
UACC-62 melanoma = system: UACC-62 melanoma
HOP-62 NSCLC = system: HOP-62 NSCLC
SN12C renal = system: SN12C renal
SF-539 CNS = system: SF-539 CNS
LOX IMVI melanoma = system: LOX IMVI melanoma
U251 CNS = system: U251 CNS
NCI-H226 lung = system: NCI-H226 lung
HCT-15 colon = system: HCT-15 colon
HCT-116 colon = system: HCT-116 colon
UO-31 renal = system: UO-31 renal
SF-268 CNS = system: SF-268 CNS
HL-60(TB) leukemia = system: HL-60(TB) leukemia
MDA-MB-435 = system: MDA-MB-435
COLO 205 colon = system: COLO 205 colon
HT29 colon = system: HT29 colon
SW-620 colon = system: SW-620 colon
CAKI-1 renal = system: CAKI-1 renal
SF-295 CNS = system: SF-295 CNS
SK-OV-3 ovarian = system: SK-OV-3 ovarian
HS 578T breast = system: HS 578T breast
SNB-19 CNS = system: SNB-19 CNS
KM12 colon = system: KM12 colon
UACC-257 melanoma = system: UACC-257 melanoma
HOP-92 NSCLC = system: HOP-92 NSCLC

CC1=C(C#N)C(/C=C(\Cl)c2ccc(F)cc2)C(C#N)=C(C)N1
GI50 (CCRF-CEM leukemia): > 100 µM
TGI (CCRF-CEM leukemia): > 100 µM
GI50 (OVCAR-8 ovarian): > 100 µM
TGI (OVCAR-8 ovarian): > 100 µM
GI50 (M14 melanoma): > 100 µM
TGI (M14 melanoma): > 100 µM
GI50 (T-47D breast): > 100 µM
TGI (T-47D breast): > 100 µM
GI50 (SK-MEL-2 melanoma): > 100 µM
TGI (SK-MEL-2 melanoma): > 100 µM
GI50 (PC-3 prostate): > 100 µM
TGI (PC-3 prostate): > 100 µM
GI50 (MDA-MB-231 breast): 94.9 µM
TGI (MDA-MB-231 breast): > 100 µM
GI50 (MCF7 breast): > 100 µM
TGI (MCF7 breast): > 100 µM
GI50 (BT-549 breast): > 100 µM
TGI (BT-549 breast): > 100 µM
GI50 (NCI-H460 lung): > 100 µM
TGI (NCI-H460 lung): > 100 µM
GI50 (MOLT-4 leukemia): > 100 µM
TGI (MOLT-4 leukemia): > 100 µM
GI50 (OVCAR-4 ovarian): > 100 µM
TGI (OVCAR-4 ovarian): > 100 µM
GI50 (SK-MEL-5 melanoma): > 100 µM
TGI (SK-MEL-5 melanoma): > 100 µM
GI50 (A498 renal): > 100 µM
TGI (A498 renal): > 100 µM
GI50 (SNB-75 CNS): 86.3 µM
TGI (SNB-75 CNS): > 100 µM
GI50 (ACHN renal): > 100 µM
TGI (ACHN renal): > 100 µM
GI50 (786-0 renal): > 100 µM
TGI (786-0 renal): > 100 µM
GI50 (TK-10 renal): > 100 µM
TGI (TK-10 renal): > 100 µM
GI50 (SK-MEL-28 melanoma): > 100 µM
TGI (SK-MEL-28 melanoma): > 100 µM
GI50 (SR leukemia): > 100 µM
TGI (SR leukemia): > 100 µM
GI50 (RPMI-8226 leukemia): 36.3 µM
TGI (RPMI-8226 leukemia): > 100 µM
GI50 (EKVX NSCLC): > 100 µM
TGI (EKVX NSCLC): > 100 µM
GI50 (K-562 leukemia): > 100 µM
TGI (K-562 leukemia): > 100 µM
GI50 (MALME-3M melanoma): > 100 µM
TGI (MALME-3M melanoma): > 100 µM
GI50 (OVCAR-5 ovarian): > 100 µM
TGI (OVCAR-5 ovarian): > 100 µM
GI50 (IGROV1 ovarian): > 100 µM
TGI (IGROV1 ovarian): > 100 µM
GI50 (DU-145 prostate): > 100 µM
TGI (DU-145 prostate): > 100 µM
GI50 (NCI/ADR-RES ovarian): > 100 µM
TGI (NCI/ADR-RES ovarian): > 100 µM
GI50 (A549 NSCLC): > 100 µM
TGI (A549 NSCLC): > 100 µM
GI50 (HCC-2998 colon): > 100 µM
TGI (HCC-2998 colon): > 100 µM
GI50 (RXF 393 renal): > 100 µM
TGI (RXF 393 renal): > 100 µM
GI50 (NCI-H23 lung): > 100 µM
TGI (NCI-H23 lung): > 100 µM
GI50 (OVCAR-3 ovarian): > 100 µM
TGI (OVCAR-3 ovarian): > 100 µM
GI50 (NCI-H522 lung): > 100 µM
TGI (NCI-H522 lung): > 100 µM
GI50 (UACC-62 melanoma): 81 µM
TGI (UACC-62 melanoma): > 100 µM
GI50 (HOP-62 NSCLC): > 100 µM
TGI (HOP-62 NSCLC): > 100 µM
GI50 (SN12C renal): > 100 µM
TGI (SN12C renal): > 100 µM
GI50 (SF-539 CNS): > 100 µM
TGI (SF-539 CNS): > 100 µM
GI50 (LOX IMVI melanoma): > 100 µM
TGI (LOX IMVI melanoma): > 100 µM
GI50 (U251 CNS): > 100 µM
TGI (U251 CNS): > 100 µM
GI50 (NCI-H226 lung): > 100 µM
TGI (NCI-H226 lung): > 100 µM
GI50 (HCT-15 colon): > 100 µM
TGI (HCT-15 colon): > 100 µM
GI50 (HCT-116 colon): > 100 µM
TGI (HCT-116 colon): > 100 µM
GI50 (UO-31 renal): > 100 µM
TGI (UO-31 renal): > 100 µM
GI50 (SF-268 CNS): > 100 µM
TGI (SF-268 CNS): > 100 µM
GI50 (HL-60(TB) leukemia): 74 µM
TGI (HL-60(TB) leukemia): > 100 µM
GI50 (MDA-MB-435): > 100 µM
TGI (MDA-MB-435): > 100 µM
GI50 (COLO 205 colon): > 100 µM
TGI (COLO 205 colon): > 100 µM
GI50 (HT29 colon): > 100 µM
TGI (HT29 colon): > 100 µM
GI50 (SW-620 colon): > 100 µM
TGI (SW-620 colon): > 100 µM
GI50 (CAKI-1 renal): > 100 µM
TGI (CAKI-1 renal): > 100 µM
GI50 (SF-295 CNS): 53.7 µM
TGI (SF-295 CNS): > 100 µM
GI50 (SK-OV-3 ovarian): > 100 µM
TGI (SK-OV-3 ovarian): > 100 µM
GI50 (HS 578T breast): > 100 µM
TGI (HS 578T breast): > 100 µM
GI50 (SNB-19 CNS): > 100 µM
TGI (SNB-19 CNS): > 100 µM
GI50 (KM12 colon): > 100 µM
TGI (KM12 colon): > 100 µM
GI50 (UACC-257 melanoma): > 100 µM
TGI (UACC-257 melanoma): > 100 µM

CC(=O)O[C@H]1C(=O)[C@@]2(C)[C@H]([C@H](OC(=O)c3ccccc3)[C@]3(O)C[C@H](OC(=O)[C@H](O)[C@@H](NC(=O)c4ccc(N(C)C)cc4)c4ccccc4)C(C)=C1C3(C)C)[C@]1(OC(C)=O)CO[C@@H]1C[C@@H]2O
TGI (CCRF-CEM leukemia): 2.34 µM
TGI (OVCAR-8 ovarian): > 50 µM
TGI (M14 melanoma): > 50 µM
TGI (T-47D breast): > 50 µM
TGI (PC-3 prostate): > 50 µM
TGI (MDA-MB-231 breast): > 50 µM
TGI (MCF7 breast): > 50 µM
TGI (BT-549 breast): > 50 µM
TGI (MOLT-4 leukemia): > 21.9 µM
TGI (OVCAR-4 ovarian): > 50 µM
TGI (SK-MEL-5 melanoma): > 22.1 µM
TGI (A498 renal): > 50 µM
TGI (SNB-75 CNS): > 50 µM
TGI (ACHN renal): > 50 µM
TGI (786-0 renal): > 50 µM
TGI (TK-10 renal): > 45.1 µM
TGI (SK-MEL-28 melanoma): > 50 µM
TGI (SR leukemia): > 18.5 µM
TGI (RPMI-8226 leukemia): 0.00795 µM
TGI (EKVX NSCLC): > 50 µM
TGI (OVCAR-5 ovarian): > 50 µM
TGI (IGROV1 ovarian): > 50 µM
TGI (NCI/ADR-RES ovarian): 16.7 µM
TGI (A549 NSCLC): > 50 µM
TGI (RXF 393 renal): 0.226 µM
TGI (NCI-H23 lung): > 50 µM
TGI (OVCAR-3 ovarian): 0.0063 µM
TGI (UACC-62 melanoma): > 50 µM
TGI (HOP-92 NSCLC): > 50 µM
TGI (HOP-62 NSCLC): > 50 µM
TGI (SN12C renal): > 50 µM
TGI (LOX IMVI melanoma): > 50 µM
TGI (U251 CNS): > 50 µM
TGI (HCT-15 colon): > 50 µM
TGI (HCT-116 colon): > 50 µM
TGI (UO-31 renal): > 50 µM
TGI (SF-268 CNS): > 50 µM
TGI (HL-60(TB) leukemia): 0.00566 µM
TGI (SW-620 colon): > 50 µM
TGI (CAKI-1 renal): > 50 µM
TGI (SF-295 CNS): > 50 µM
TGI (SK-OV-3 ovarian): > 50 µM
TGI (HS 578T breast): 0.00632 µM
TGI (SNB-19 CNS): > 50 µM
TGI (KM12 colon): > 50 µM
